For 13 compounds, DC50 and Dmax results are on record in patent publication US20240165244A1 (Prelude Therapeutics Incorporated, priority 2022, published 2024).

The target in assay [1] is T1, SMARCA2 (Homo sapiens, UniProt P51531).
T1 construct: SMARCA2-HiBiT knock-in Hela monoclonal cell (CS302366); host or cells: HeLa monoclonal cells with heterozygous HiBiT knock-in at the endogenous SMARCA2 locus
Nature of the assay: SMARCA2 HiBiT degradation assay in HeLa cells. It counts as cell-based. The conditions noted are these: 18 hours, highest concentration 10 μM. A digest of the protocol: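 HeLa cells carrying a heterozygous C-terminal HiBiT knock-in on SMARCA2 were seeded at 2500 cells/well. They were treated with 3-fold dilution series, top concentration 10 μM, for 18 h at 37 °C. Remaining SMARCA2-HiBiT was measured by Nano-Glo HiBiT lytic luminescence after 30-60 min at RT, followed by curve fitting.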

Assay [2] deals with T2, SMARCA4 (Homo sapiens, UniProt P51532).
T2 construct: SMARCA4-HiBiT knock-in Hela monoclonal cell (CS3023226); host or cells: HeLa monoclonal cells with heterozygous HiBiT knock-in at the endogenous SMARCA4 locus
Nature of the assay: SMARCA4 HiBiT degradation assay in HeLa cells. The format is cell-based. As to conditions: 18 hours, highest concentration 10 μM. A digest of the protocol: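 HeLa monoclonal cells with HiBiT knocked into SMARCA4 were seeded at 2500 cells/well, dosed with compound and incubated 18 hours at 37° C. HiBiT signal reported remaining SMARCA4 protein, and values came from curve fitting.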

T2 sequence (P51532 whole entry): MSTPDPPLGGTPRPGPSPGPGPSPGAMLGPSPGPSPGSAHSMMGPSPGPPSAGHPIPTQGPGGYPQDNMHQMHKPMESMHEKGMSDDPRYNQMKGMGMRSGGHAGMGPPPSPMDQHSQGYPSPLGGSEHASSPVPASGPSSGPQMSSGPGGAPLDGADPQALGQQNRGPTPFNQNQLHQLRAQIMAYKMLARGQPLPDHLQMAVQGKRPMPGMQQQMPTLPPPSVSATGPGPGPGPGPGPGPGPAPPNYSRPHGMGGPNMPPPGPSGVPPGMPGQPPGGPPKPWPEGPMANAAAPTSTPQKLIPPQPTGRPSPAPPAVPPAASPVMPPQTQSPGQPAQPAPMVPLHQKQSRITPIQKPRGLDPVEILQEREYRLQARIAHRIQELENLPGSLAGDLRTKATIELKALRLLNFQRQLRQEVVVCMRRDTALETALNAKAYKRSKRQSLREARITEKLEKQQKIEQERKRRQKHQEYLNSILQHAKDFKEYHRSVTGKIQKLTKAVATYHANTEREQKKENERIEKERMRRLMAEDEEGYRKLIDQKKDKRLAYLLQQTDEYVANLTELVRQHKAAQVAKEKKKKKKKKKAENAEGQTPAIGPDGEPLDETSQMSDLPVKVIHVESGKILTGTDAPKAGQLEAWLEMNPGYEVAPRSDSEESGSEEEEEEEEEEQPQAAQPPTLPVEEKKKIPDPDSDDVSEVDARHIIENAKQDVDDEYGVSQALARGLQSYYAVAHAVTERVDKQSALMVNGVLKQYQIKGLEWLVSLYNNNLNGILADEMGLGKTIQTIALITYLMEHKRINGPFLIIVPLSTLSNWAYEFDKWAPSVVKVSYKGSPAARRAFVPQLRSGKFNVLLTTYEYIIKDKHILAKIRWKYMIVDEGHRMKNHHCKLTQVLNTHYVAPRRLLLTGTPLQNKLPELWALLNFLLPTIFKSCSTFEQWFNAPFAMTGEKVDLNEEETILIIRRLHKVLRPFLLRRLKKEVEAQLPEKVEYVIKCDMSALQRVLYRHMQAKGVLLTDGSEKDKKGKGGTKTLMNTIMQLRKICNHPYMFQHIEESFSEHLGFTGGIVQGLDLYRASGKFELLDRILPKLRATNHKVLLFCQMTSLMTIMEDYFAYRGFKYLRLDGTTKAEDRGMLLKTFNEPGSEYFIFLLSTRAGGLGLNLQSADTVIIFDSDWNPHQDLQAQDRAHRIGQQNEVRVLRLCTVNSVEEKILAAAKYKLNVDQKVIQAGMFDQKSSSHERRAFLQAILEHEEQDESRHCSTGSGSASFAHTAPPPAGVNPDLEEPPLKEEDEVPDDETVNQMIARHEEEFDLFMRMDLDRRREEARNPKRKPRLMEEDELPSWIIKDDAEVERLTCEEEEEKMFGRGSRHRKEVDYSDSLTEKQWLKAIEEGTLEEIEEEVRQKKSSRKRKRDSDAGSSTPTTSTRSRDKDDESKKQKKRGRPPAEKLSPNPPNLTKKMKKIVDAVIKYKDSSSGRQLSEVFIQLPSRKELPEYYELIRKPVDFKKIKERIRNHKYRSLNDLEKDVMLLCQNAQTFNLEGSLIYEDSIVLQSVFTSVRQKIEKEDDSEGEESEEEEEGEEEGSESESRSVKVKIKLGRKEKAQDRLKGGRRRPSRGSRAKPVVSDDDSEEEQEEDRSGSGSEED
T1 sequence (P51531 whole entry): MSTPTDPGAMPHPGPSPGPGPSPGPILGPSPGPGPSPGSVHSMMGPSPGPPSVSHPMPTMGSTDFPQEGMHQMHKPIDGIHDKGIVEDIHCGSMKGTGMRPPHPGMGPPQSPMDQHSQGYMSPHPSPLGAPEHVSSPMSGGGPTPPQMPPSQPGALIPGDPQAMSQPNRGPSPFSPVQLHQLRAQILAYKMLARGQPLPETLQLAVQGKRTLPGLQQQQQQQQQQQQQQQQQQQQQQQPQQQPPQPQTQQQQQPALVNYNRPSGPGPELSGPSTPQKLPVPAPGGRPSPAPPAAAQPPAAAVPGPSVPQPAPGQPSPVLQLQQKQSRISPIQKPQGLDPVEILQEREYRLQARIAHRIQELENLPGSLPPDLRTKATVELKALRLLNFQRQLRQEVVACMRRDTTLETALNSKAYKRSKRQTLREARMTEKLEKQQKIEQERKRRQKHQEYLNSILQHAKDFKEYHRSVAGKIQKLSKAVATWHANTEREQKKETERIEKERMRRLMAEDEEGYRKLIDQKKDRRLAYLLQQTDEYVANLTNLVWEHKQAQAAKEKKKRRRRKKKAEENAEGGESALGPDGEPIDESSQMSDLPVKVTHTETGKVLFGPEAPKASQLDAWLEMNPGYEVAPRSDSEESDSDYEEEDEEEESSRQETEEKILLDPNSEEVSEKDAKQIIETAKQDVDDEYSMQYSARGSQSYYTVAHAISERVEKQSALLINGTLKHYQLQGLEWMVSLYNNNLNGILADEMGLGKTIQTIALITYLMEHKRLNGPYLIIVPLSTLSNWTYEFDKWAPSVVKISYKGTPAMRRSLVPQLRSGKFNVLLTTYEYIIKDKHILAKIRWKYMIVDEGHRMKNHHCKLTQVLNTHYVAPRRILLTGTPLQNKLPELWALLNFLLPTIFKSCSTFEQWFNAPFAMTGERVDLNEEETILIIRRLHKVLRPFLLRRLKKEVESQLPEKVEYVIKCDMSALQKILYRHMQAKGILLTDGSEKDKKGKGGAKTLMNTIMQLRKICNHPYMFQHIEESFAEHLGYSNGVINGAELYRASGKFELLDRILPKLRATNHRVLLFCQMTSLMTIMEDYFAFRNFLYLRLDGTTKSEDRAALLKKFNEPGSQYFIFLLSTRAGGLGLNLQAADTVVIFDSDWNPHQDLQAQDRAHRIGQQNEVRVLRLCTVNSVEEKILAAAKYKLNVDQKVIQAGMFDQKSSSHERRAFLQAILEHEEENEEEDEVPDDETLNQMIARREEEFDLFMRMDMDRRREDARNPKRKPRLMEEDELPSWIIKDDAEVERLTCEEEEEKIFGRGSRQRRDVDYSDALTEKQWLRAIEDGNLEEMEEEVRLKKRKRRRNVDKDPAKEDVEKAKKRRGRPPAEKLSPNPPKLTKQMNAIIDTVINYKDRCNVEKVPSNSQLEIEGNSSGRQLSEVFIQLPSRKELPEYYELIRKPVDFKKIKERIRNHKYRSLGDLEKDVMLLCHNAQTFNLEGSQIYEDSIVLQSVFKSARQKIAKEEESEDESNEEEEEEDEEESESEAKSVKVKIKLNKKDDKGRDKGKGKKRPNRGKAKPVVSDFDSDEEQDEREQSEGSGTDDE

In assay [1], `O=C1CCC(N2Cc3ccc(N4CCN(Cc5cnc(O[C@H]6CN7c8cc(-c9cccc(F)c9O)nnc8NC[C@@]7(C(F)F)C6)c(F)c5)CC4)cc3C2=O)C(=O)N1` (stereo partly drawn) [Example 84, 3-(6-(4-((6-(((6aR,8R)-6a-(difluoromethyl)-2-(3-fluoro-2-hydroxyphenyl)-5,6,6a,7,8,9-hexahydropyrrolo[1′,2′:4,5]pyrazino[2,3-c]pyridazin-8-yl)oxy)-5-fluoropyridin-3-yl)methyl)piperazin-1-yl)-1-oxoisoindolin-2-yl)piperidine-2,6-dione] came in with a half-maximal degradation concentration (DC50) of less than 0.1 µM and a Dmax of more than 75%. In assay [2], this compound showed a DC50 of 0.1 to 1 µM and a Dmax of less than 50%.

In assay [1], `O=C1CCC(N2Cc3ccc(N4CCN(Cc5cnc(O[C@H]6CN7c8cc(-c9cccc(F)c9O)nnc8NC[C@@]7(C(F)F)C6)c(Cl)c5)CC4)cc3C2=O)C(=O)N1` (stereo partly drawn) [Example 85, 3-(6-(4-((5-chloro-6-(((6aR,8R)-6a-(difluoromethyl)-2-(3-fluoro-2-hydroxyphenyl)-5,6,6a,7,8,9-hexahydropyrrolo[1′,2′:4,5]pyrazino[2,3-c]pyridazin-8-yl)oxy)pyridin-3-yl)methyl)piperazin-1-yl)-1-oxoisoindolin-2-yl)piperidine-2,6-dione] came in with a DC50 of less than 0.1 µM and a Dmax of more than 75%. In assay [2], this compound yielded a DC50 of less than 0.1 µM and a Dmax of 50 to 75%.

Consider `Cc1c(CN2CCN(c3ccc4c(c3)C(=O)N([C@H]3CCC(=O)NC3=O)C4)CC2)cnc(O[C@H]2CN3c4cc(-c5cccc(F)c5O)nnc4NC[C@@]3(C(F)F)C2)c1C` [Example 86, (S)-3-(6-(4-((6-(((6aR,8R)-6a-(difluoromethyl)-2-(3-fluoro-2-hydroxyphenyl)-5,6,6a,7,8,9-hexahydropyrrolo[1′,2′:4,5]pyrazino[2,3-c]pyridazin-8-yl)oxy)-4,5-dimethylpyridin-3-yl)methyl)piperazin-1-yl)-1-oxoisoindolin-2-yl)piperidine-2,6-dione], for which, in assay [1], the DC50 was less than 0.1 µM and the Dmax is more than 75%. For the same compound, in assay [2], the DC50 is 0.1 to 1 µM and the Dmax was less than 50%.

On to `Cc1cc(CN2CCN(c3ccc4c(c3)C(=O)N([C@H]3CCC(=O)NC3=O)C4)CC2)c(C)nc1O[C@H]1CN2c3cc(-c4cccc(F)c4O)nnc3NC[C@@]2(C(F)F)C1` [Example 87, (S)-3-(6-(4-((6-(((6aR,8R)-6a-(difluoromethyl)-2-(3-fluoro-2-hydroxyphenyl)-5,6,6a,7,8,9-hexahydropyrrolo[1′,2′:4,5]pyrazino[2,3-c]pyridazin-8-yl)oxy)-2,5-dimethylpyridin-3-yl)methyl)piperazin-1-yl)-1-oxoisoindolin-2-yl)piperidine-2,6-dione], for which, in assay [1], the DC50 is less than 0.1 µM and the Dmax was more than 75%. Also, in assay [2], the DC50 was 0.1 to 1 µM and the Dmax is less than 50%.

`O=C1CCC(N2Cc3ccc(C4CCN(Cc5cnc(O[C@H]6CN7c8cc(-c9cccc(F)c9O)nnc8NC[C@@]7(C(F)F)C6)c(F)c5)CC4)cc3C2=O)C(=O)N1` (stereo partly drawn) [Example 88, 3-(6-(1-((6-(((6aR,8R)-6a-(difluoromethyl)-2-(3-fluoro-2-hydroxyphenyl)-5,6,6a,7,8,9-hexahydropyrrolo[1′,2′:4,5]pyrazino[2,3-c]pyridazin-8-yl)oxy)-5-fluoropyridin-3-yl)methyl)piperidin-4-yl)-1-oxoisoindolin-2-yl)piperidine-2,6-dione]: in assay [1], the DC50 was less than 0.1 µM and the Dmax is more than 75%. In assay [2], this compound came in with a DC50 of 0.1 to 1 µM and a Dmax of less than 50%.

In assay [1], `Cc1c(CN2CCC(c3ccc4c(c3)C(=O)N([C@H]3CCC(=O)NC3=O)C4)CC2)cnc(O[C@H]2CN3c4cc(-c5cccc(F)c5O)nnc4NC[C@]3(C(F)F)C2)c1F` [Example 89, (S)-3-(6-(1-((6-(((6aS,8R)-6a-(difluoromethyl)-2-(3-fluoro-2-hydroxyphenyl)-5,6,6a,7,8,9-hexahydropyrrolo[1′,2′:4,5]pyrazino[2,3-c]pyridazine-8-yl)oxy)-5-fluoro-4-methylpyridin-3-yl)methyl)piperidin-4-yl)-1-oxoisoindolin-2-yl)piperidine-2,6-dione] had a DC50 of less than 0.1 µM and a Dmax of more than 75%. In assay [2], this compound showed a 50% degradation concentration (DC50) of less than 0.1 µM and a Dmax of more than 75%.

On to `O=C1CC[C@H](N2Cc3ccc(C4CCN(Cc5ccc(O[C@H]6CN7c8cc(-c9cccc(F)c9O)nnc8NC[C@@]7(C(F)F)C6)nc5)CC4)cc3C2=O)C(=O)N1` [Example 90, (S)-3-(6-(1-((6-(((6aR,8R)-6a-(difluoromethyl)-2-(3-fluoro-2-hydroxyphenyl)-5,6,6a,7,8,9-hexahydropyrrolo[1′,2′:4,5]pyrazino[2,3-c]pyridazin-8-yl)oxy)pyridin-3-yl)methyl)piperidin-4-yl)-1-oxoisoindolin-2-yl)piperidine-2,6-dione], for which, in assay [1], the DC50 was less than 0.1 µM and the Dmax was more than 75%. In assay [2], the DC50 was more than 1 µM and the Dmax is less than 50%.

In the case of `Cc1nc(CN2CCC(c3ccc4c(c3)C(=O)N([C@H]3CCC(=O)NC3=O)C4)CC2)cnc1O[C@H]1CN2c3cc(-c4cccc(F)c4O)nnc3NC[C@]2(C(F)F)C1` [Example 91, (S)-3-(6-(1-((5-(((6aS,8R)-6a-(difluoromethyl)-2-(3-fluoro-2-hydroxyphenyl)-5,6,6a,7,8,9-hexahydropyrrolo[1′,2′:4,5]pyrazino[2,3-c]pyridazin-8-yl)oxy)-6-methylpyrazin-2-yl)methyl)piperidin-4-yl)-1-oxoisoindolin-2-yl)piperidine-2,6-dione], in assay [1], the DC50 is less than 0.1 µM and the Dmax is more than 75%. Besides, in assay [2], the 50% degradation concentration (DC50) was less than 0.1 µM and the Dmax was 50 to 75%.

In the case of `Cc1cc(CN2CCC(c3ccc4c(c3)C(=O)N([C@H]3CCC(=O)NC3=O)C4)CC2)ncc1O[C@H]1CN2c3cc(-c4cccc(F)c4O)nnc3NC[C@]2(C(F)F)C1` [Example 92, (S)-3-(6-(1-((5-(((6aS,8R)-6a-(difluoromethyl)-2-(3-fluoro-2-hydroxyphenyl)-5,6,6a,7,8,9-hexahydropyrrolo[1′,2′:4,5]pyrazino[2,3-c]pyridazin-8-yl)oxy)-4-methylpyridin-2-yl)methyl)piperidin-4-yl)-1-oxoisoindolin-2-yl)piperidine-2,6-dione], the DC50 in assay [1] and in assay [2] was less than 0.1 µM in each case. In addition, the Dmax in assay [1] was more than 75%; in assay [2], 50 to 75%.

`Cc1cc(O[C@H]2CN3c4cc(-c5cccc(F)c5O)nnc4NC[C@@]3(CF)C2)ncc1CN1CCC(c2ccc3c(c2)C(=O)N([C@H]2CCC(=O)NC2=O)C3)CC1` [Example 93, (S)-3-(6-(1-((6-(((6aR,8R)-2-(3-fluoro-2-hydroxyphenyl)-6a-(fluoromethyl)-5,6,6a,7,8,9-hexahydropyrrolo [1′,2′:4,5]pyrazino[2,3-c]pyridazin-8-yl)oxy)-4-methylpyridin-3-yl)methyl)piperidin-4-yl)-1-oxoisoindolin-2-yl)piperidine-2,6-dione]: in assay [1], the 50% degradation concentration (DC50) is less than 0.1 µM and the greatest degradation seen (Dmax) was more than 75%. In assay [2], this compound gave a DC50 of more than 1 µM and a Dmax of less than 50%.

In assay [1], `Cc1cc(CN2CCC(c3ccc4c(c3)C(=O)N([C@H]3CCC(=O)NC3=O)C4)CC2)ncc1O[C@H]1CN2c3cc(-c4cccc(C)c4O)nnc3NC[C@]2(C(F)F)C1` [Example 94, (S)-3-(6-(1-((5-(((6aS,8R)-6a-(difluoromethyl)-2-(2-hydroxy-3-methylphenyl)-5,6,6a,7,8,9-hexahydropyrrolo [1′,2′:4,5]pyrazino[2,3-c]pyridazin-8-yl)oxy)-4-methylpyridin-2-yl)methyl)piperidin-4-yl)-1-oxoisoindolin-2-yl)piperidine-2,6-dione] displayed a half-maximal degradation concentration (DC50) of less than 0.1 µM and a Dmax of 50 to 75%. In assay [2], the DC50 is more than 1 µM and the Dmax was less than 50%.

Take `CC[C@@]12CNc3nnc(-c4cccc(C)c4O)cc3N1C[C@H](Oc1cnc(CN3CCC(c4ccc5c(c4)C(=O)N([C@H]4CCC(=O)NC4=O)C5)CC3)c(C)c1C)C2` [Example 95, (S)-3-(6-(1-((5-(((6aR,8R)-6a-ethyl-2-(2-hydroxy-3-methylphenyl)-5,6,6a,7,8,9-hexahydropyrrolo[1′,2′:4,5]pyrazino[2,3-c]pyridazin-8-yl)oxy)-3,4-dimethylpyridin-2-yl)methyl)piperidin-4-yl)-1-oxoisoindolin-2-yl)piperidine-2,6-dion]: in assay [1], the DC50 was less than 0.1 µM and the maximal degradation (Dmax) was more than 75%. Moreover, in assay [2], the half-maximal degradation concentration (DC50) is more than 1 µM and the greatest degradation seen (Dmax) was less than 50%.

In assay [1], `CC[C@]12CNc3nnc(-c4cccc(C)c4O)cc3N1C[C@H](Oc1nc(C)c(CN3CCC(c4ccc5c(c4)C(=O)N([C@H]4CCC(=O)NC4=O)C5)CC3)c(C)n1)C2` [Example 96, (S)-3-(6-(1-((2-(((6aS,8R)-6a-ethyl-2-(2-hydroxy-3-methylphenyl)-5,6,6a,7,8,9-hexahydropyrrolo[1′,2′:4,5]pyrazino[2,3-c]pyridazin-8-yl)oxy)-4,6-dimethylpyrimidin-5-yl)methyl)piperidin-4-yl)-1-oxoisoindolin-2-yl)piperidine-2,6-dione] gave a DC50 of less than 0.1 µM and a Dmax of more than 75%. Moreover, in assay [2], the DC50 lay in the range of 0.1 to 1 µM and the greatest degradation seen (Dmax) was less than 50%.
